Measurements published in patent publication US9079915B2, “Thienyl- and furanyl-isoquinolinones and methods for using them” (priority 2008, dated 2015).
Counter-ions that a name gives are not always drawn.

Tests used:
[1] = molecular target: T1, hrPARP-1 (human recombinant, Trevigen) (Homo sapiens, UniProt P09874); experiment: Functional assessment of human PARP-1 enzymatic activity; type: biochemical; settings: 1 U hrPARP-1, 15 μg/mL activated DNA, 5 μM NAD+, 20 min room temperature
T1 construct: purchased Trevigen
Protocol: Functional Assessment of Human PARP-1 Enzymatic Activity
hrPARP-1 (human recombinant, Trevigen), Activated DNA (Sigma), 6(5H)-phenanthridinone (PND), (Sigma), NAD+ (Calbiochem), PARP-1 assay buffer (50 mM Tris, 2 mM MgCl2, pH 8.0), 20% acetophenone in EtOH, 2 M KOH
88% formic acid, 110° C. oven, Flexstation Plate Reader.
Compound plates were prepared by making a series of 1:3 dilutions for each tested compound, 10 steps of each at 20 μL in DMSO starting from a concentration of 5 mM. NAD^+ (39 μL of a 6.4 μM solution) were added to each well of a 96-well flat bottom fluorescent assay plate. Test compound (1 μL) was added to each well. To initiate the reaction, 10 μL of PARP (contains 5 U of PARP and 75 μg/mL activated DNA) was added with a final 1 U hrPARP-1, 15 μg/mL activated DNA and 5 μM of NAD^+. The highest concentration used for test compounds was 100 μM. The plates were incubated at room temperature on a shaker. After 20 min, 20 μL of 2 M KOH and 20 μL of 20% acetophenone were added. The plate was incubated 10 min. at 4° C., and 90 μL of 88% formic acid was added. After incubating in an 110° C. oven for 5 min, the plate was cooled to room temperature and read of a Flexstation Plate Reader (excitation at 360 nm, emission at 445 nm).
LSW data analysis software was used to generate PARP-1 IC50s.

[2] = MDCK permeability assay (efflux ratio); type: in vitro ADME, Canine; settings: dog, MDCK-MDR1, pH 7.4, MDR-MDCK cells, 37° C., Papp(B-A)/Papp(A-B)
Protocol: 1. MDCK Permeability Assay
Multi Drug Resistance-Madin-Darby Canine Kidney (MDR-MDCK) cells were obtained from NIH (Bethesda, Md., USA). Cells were plated on Costar 3401 Transwell 12 well, 12 mm diameter, 0.4 um pore size plates (Costar, Mass., USA) and cultured for at least 6 days prior to the transport assay. The cells were carefully pre-washed with Hank's balanced salt solution containing 10 mM HEPES and 15 mM D-glucose at pH 7.4, which was also used as the assay buffer. The test compounds were dosed on the apical side (A-B) or the basolateral side (B-A) with 0.2 mM Lucifer Yellow (500 μL into apical side, 1500 μL into basolateral side). The test compounds in the apical or basolateral chambers were at an initial concentration of 10 μM. The plates were incubated at 37° C. with 5% CO2 and 90% relative humidity for 2 hours. One hundred microliters of receiver solution (basolateral side for A-B transport experiment, apical side for B-A transport experiment) was transferred to a 96 well plate for LC-MS-MS quantization of the test compound concentration and fluorometer quantization of Lucifer Yellow.
Quality control compounds and TEER measurements were run to assure proper operation of the assay (see Table 2). The TEER values of each well use for the assay should be ≧1400 ohm·cm^2.

[3] = Microsomal stability, rat liver microsomes; type: in vitro ADME; settings: 0.5 mg/mL protein
Protocol: (§1) The assay protocol was described in Summerfield S G, Read K, Begley D J, Obradovic T, Hidalgo I J, Coggon S, Lewis A V, Porter R A, Jeffrey P 2007. Central Nervous System Drug Disposition: The Relationship between in Situ Brain Permeability and Brain Free Fraction. J Pharmacol Exp Ther, 322(1):205-213; and Li Di, E. Kerns, S. Li, S. Petusky, “High Throughput Metabolic Stability Assay for Insoluble Compounds”, Int. J. Pharm., 317, 54-60, 2006.
(§2) The samples were incubated with liver microsomes from rat, mouse, and human at 1 μM at microsomal protein concentration of 0.5 mg/mL at 37° C. in the presence of NADPH cofactor. At both time 0 and 15 minutes incubation, cold acetonitrile was added to the wells to stop the reaction. The solution was centrifuged and the supernatants were analyzed using LC-MS-MS. “Phase I” represents Phase I metabolism-oxidative metabolism by microsomes and “Phase II” represents Phase I oxidative metabolism (stated above) plus cofactors added that allow for Phase II (non-oxidative, conjugative) metabolism to take place.

[4] = Microsomal stability, C57 mouse liver microsomes; type: in vitro ADME; settings: 0.5 mg/mL protein
Protocol: as §1, §2

[5] = Microsomal stability, human liver microsomes; type: in vitro ADME; settings: 0.5 mg/mL protein
Protocol: as §1, §2

[6] = Brain (B)-Plasma (P) dialysis; type: in vitro ADME; settings: for Kp at 5 h, 10 μM: diluted plasma or brain homogenate vs PBS, 37° C., read-out: Brain-Plasma Dialysis B/P Ratio; for B/P ratio divided by MDCK efflux ratio at 10 μM: read-out: Brain-Plasma Dialysis B/P/efflux ratio (ER)
Protocol: 2. Brain (B)-Plasma (P) Dialysis
DMSO stock solution of 1 mM was prepared and 10 μL was added to 990 uL plasma (1 plasma:3 PBS) or brain homogeneous (1 brain:12 PBS). The final concentration was 10 μM test compound with 1% DMSO. The dialysis was setup with 200 uL PBS vs. 200 uL diluted plasma or diluted brain homogenates with test compounds. The dialysis plate was incubated at 37° C., 70 RPM for 5 hours. At the end of the incubation, 150 μL PBS, 50 uL plasma and 50 uL of brain homogenates were sampled from the dialysis device. Each of the samples was matched with PBS, plasma and brain homogenates to give consistent matrix material. Cold acetonitrile of 300 μL was added to the sample to precipitate the proteins and tissues. The solutions were centrifuged and the supernatants were transferred for LC-MS-MS analysis. Four replicates were preformed for each test compound. Data was calculated according to Summerfield S G, Read K, Begley D J, Obradovic T, Hidalgo I J, Coggon S, Lewis A V, Porter R A, Jeffrey P 2007. Central Nervous System Drug Disposition: The Relationship between in Situ Brain Permeability and Brain Free Fraction.

[7] = NADPH, Phase I, read-out: Microsomal Stability Rat Phase I t1/2
[8] = Phase I plus Phase II cofactors, read-out: Microsomal Stability Rat Phase I & II t1/2
[9] = NADPH, Phase I, read-out: Microsomal Stability C57 Mouse Phase I t1/2
[10] = Phase I plus Phase II cofactors, read-out: Microsomal Stability C57 Mouse Phase I & II t1/2
[11] = NADPH, Phase I, read-out: Microsomal Stability Human Phase I t1/2
[12] = Phase I plus Phase II cofactors, read-out: Microsomal Stability Human Phase I & II t1/2

T1 sequence (P09874 whole entry): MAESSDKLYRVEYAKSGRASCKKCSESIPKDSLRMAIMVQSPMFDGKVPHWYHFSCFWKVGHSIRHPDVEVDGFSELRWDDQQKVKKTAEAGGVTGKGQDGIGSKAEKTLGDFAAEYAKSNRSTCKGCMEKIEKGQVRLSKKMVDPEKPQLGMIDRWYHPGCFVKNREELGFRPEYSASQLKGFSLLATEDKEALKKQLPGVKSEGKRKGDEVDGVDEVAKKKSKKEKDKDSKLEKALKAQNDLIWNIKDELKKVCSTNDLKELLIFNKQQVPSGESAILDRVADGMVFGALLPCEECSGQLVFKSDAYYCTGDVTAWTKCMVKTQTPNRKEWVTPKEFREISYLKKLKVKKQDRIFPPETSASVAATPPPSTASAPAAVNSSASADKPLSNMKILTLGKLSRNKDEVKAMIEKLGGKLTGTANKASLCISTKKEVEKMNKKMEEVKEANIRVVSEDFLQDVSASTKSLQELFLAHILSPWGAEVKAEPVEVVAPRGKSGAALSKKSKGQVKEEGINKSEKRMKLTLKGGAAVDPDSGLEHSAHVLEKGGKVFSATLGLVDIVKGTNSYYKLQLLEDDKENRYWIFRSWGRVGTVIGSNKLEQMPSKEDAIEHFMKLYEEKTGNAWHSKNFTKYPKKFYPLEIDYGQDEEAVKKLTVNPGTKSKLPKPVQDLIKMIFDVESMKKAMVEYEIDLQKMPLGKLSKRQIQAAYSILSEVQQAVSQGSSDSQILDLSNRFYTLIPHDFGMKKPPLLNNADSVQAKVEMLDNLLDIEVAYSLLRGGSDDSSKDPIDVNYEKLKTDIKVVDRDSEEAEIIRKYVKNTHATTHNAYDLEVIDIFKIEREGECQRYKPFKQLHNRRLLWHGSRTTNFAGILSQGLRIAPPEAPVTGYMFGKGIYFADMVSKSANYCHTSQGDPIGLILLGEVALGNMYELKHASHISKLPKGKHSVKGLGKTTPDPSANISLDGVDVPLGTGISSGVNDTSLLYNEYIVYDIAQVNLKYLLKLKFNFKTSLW

CN(C)Cc1cc2c([nH]c(=O)c3ccccc32)s1 [Example 3, 2-[(Dimethylamino)methyl]thieno[2,3-c]isoquinolin-5(4H)-one hydrochloride]
IC50 [1]: 260 nM

COc1ccc2c(=O)[nH]c3sc(CN(C)C)cc3c2c1 [Example 8, 2-[(Dimethylamino)methyl]-8-methoxythieno[2,3-c]isoquinolin-5(4H)-one hydrochloride]
IC50 [1]: 2190 nM

CN(C)Cc1cc2c([nH]c(=O)c3cccc(F)c32)s1 [Example 5, 2-[(Dimethylamino)methyl]-9-fluorothieno[2,3-c]isoquinolin-5(4H)-one hydrochloride]
IC50 [1]: 200 nM

O=c1[nH]c2sc(CN3CCOCC3)cc2c2c(O)cccc12 [Example 10, 9-Hydroxy-2-(morpholin-4-ylmethyl)thieno[2,3-c]isoquinolin-5(4H)-one]
IC50 [1]: 5.6 nM | efflux ratio at 2 h, 10 μM [2]: 3.1 | half-life at 1 μM [3, 7]: 30 min | half-life at 1 μM [3, 8]: > 30 min | half-life at 1 μM [4, 9]: > 30 min | half-life at 1 μM [4, 10]: > 30 min | half-life at 1 μM [5, 11]: > 30 min | half-life at 1 μM [5, 12]: 30 min | Kp at 5 h, 10 μM [6]: 0.81 | B/P ratio divided by MDCK efflux ratio at 10 μM [6]: 0.04

CN(C)Cc1cc2c([nH]c(=O)c3cc(F)cc(O)c32)s1 [Example 7, 2-[(Dimethylamino)methyl]-7-fluoro-9-hydroxythieno[2,3-c]isoquinolin-5(4H)-one hydrochloride]
IC50 [1]: 38 nM

O=c1[nH]c2sc(CN3CCCC3)cc2c2c(O)cccc12 [Example 14, 9-Hydroxy-2-(pyrrolidin-1-ylmethyl)thieno[2,3-c]isoquinolin-5(4H)-one]
IC50 [1]: 81 nM | efflux ratio at 2 h, 10 μM [2]: > 20 | half-life at 1 μM [3, 7]: > 30 min | half-life at 1 μM [3, 8]: > 30 min | half-life at 1 μM [4, 9]: > 30 min | half-life at 1 μM [4, 10]: > 30 min | half-life at 1 μM [5, 11]: > 30 min | half-life at 1 μM [5, 12]: > 30 min | Kp at 5 h, 10 μM [6]: 1.03 | B/P ratio divided by MDCK efflux ratio at 10 μM [6]: < 0.05

CC(C)NCc1cc2c([nH]c(=O)c3cccc(O)c32)s1 [Example 13, 9-Hydroxy-2-{[(1-methylethyl)amino]methyl}thieno[2,3-c]isoquinolin-5(4H)-one]
IC50 [1]: 86 nM | half-life at 1 μM [3, 7]: < 1 min | half-life at 1 μM [3, 8]: < 1 min | half-life at 1 μM [4, 9]: 28 min | half-life at 1 μM [4, 10]: 24 min | half-life at 1 μM [5, 11]: > 30 min | half-life at 1 μM [5, 12]: > 30 min | Kp at 5 h, 10 μM [6]: 1.53

O=c1[nH]c2sc(CN3CCC(Br)CC3)cc2c2c(O)cccc12 [Example 15, 2-[(4-Bromopiperidin-1-yl)methyl]-9-hydroxythieno[2,3-c]isoquinolin-5(4H)-one]
IC50 [1]: 35 nM | efflux ratio at 2 h, 10 μM [2]: 0.9 | half-life at 1 μM [3, 7]: 3 min | half-life at 1 μM [3, 8]: 3 min | half-life at 1 μM [4, 9]: 4 min | half-life at 1 μM [4, 10]: 3 min | half-life at 1 μM [5, 11]: 7 min | half-life at 1 μM [5, 12]: 5 min | Kp at 5 h, 10 μM [6]: 1.12 | B/P ratio divided by MDCK efflux ratio at 10 μM [6]: 1.12

CN(Cc1ccccc1)Cc1cc2c([nH]c(=O)c3cccc(O)c32)s1 [Example 17, 2-{[Benzyl(methyl)amino]methyl}-9-hydroxythieno[2,3-c]isoquinolin-5(4H)-one]
IC50 [1]: 373 nM

CN(C)Cc1cc2c([nH]c(=O)c3ccc(Cl)cc32)s1 [Example 6, 8-Chloro-2-[(dimethylamino)methyl]thieno[2,3-c]isoquinolin-5(4H)-one hydrochloride]
IC50 [1]: 2250 nM

O=c1[nH]c2sc(CN(Cc3ccccc3)Cc3ccccc3)cc2c2c(O)cccc12 [Example 16, 2-[(Dibenzylamino)methyl]-9-hydroxythieno[2,3-c]isoquinolin-5(4H)-one]
IC50 [1]: 1060 nM

Br.CN(C)Cc1cc2c([nH]c(=O)c3cccc(O)c32)s1 [Example 2, 2-Dimethylaminomethyl-9-hydroxythieno[2,3-c]isoquinolin-5(4H)-one hydrobromide]
IC50 [1]: 28 nM | efflux ratio at 2 h, 10 μM [2]: 1.7 | half-life at 1 μM [3, 7]: 6 min | half-life at 1 μM [3, 8]: < 1 min | half-life at 1 μM [4, 9]: 15 min | half-life at 1 μM [4, 10]: 19 min | half-life at 1 μM [5, 11]: > 30 min | half-life at 1 μM [5, 12]: 17 min | Kp at 5 h, 10 μM [6]: 0.05 | B/P ratio divided by MDCK efflux ratio at 10 μM [6]: 0.03

O=c1[nH]c2sc(CN3CCSC3)cc2c2c(O)cccc12 [Example 12, 9-Hydroxy-2-(1,3-thiazolidin-3-ylmethyl)thieno[2,3-c]isoquinolin-5(4H)-one]
IC50 [1]: 3.3 nM | efflux ratio at 2 h, 10 μM [2]: 0.8 | half-life at 1 μM [3, 7]: 5 min | half-life at 1 μM [3, 8]: 5 min | half-life at 1 μM [4, 9]: 4 min | half-life at 1 μM [4, 10]: 5 min | half-life at 1 μM [5, 11]: 6 min | half-life at 1 μM [5, 12]: 4 min | Kp at 5 h, 10 μM [6]: 0.79 | B/P ratio divided by MDCK efflux ratio at 10 μM [6]: 0.79

COc1cccc2c(=O)[nH]c3sc(CN(C)C)cc3c12.Cl [Example 1, 2-Dimethylaminomethyl-9-methoxythieno[2,3-c]isoquinolin-5(4H)-one hydrochloride]
IC50 [1]: 137 nM | melting point: 264 to 265 °C

CN(C)Cc1cc2c([nH]c(=O)c3ccccc32)o1 [Example 9, 2-[(Dimethylamino)methyl]furo[2,3-c]isoquinolin-5(4H)-one hydrochloride]
IC50 [1]: 161 nM

CN(C)Cc1cc2c([nH]c(=O)c3cc(F)ccc32)s1 [Example 4, 2-[(Dimethylamino)methyl]-7-fluorothieno-[2,3-c]isoquinolin-5(4H)-one hydrochloride]
IC50 [1]: 100 nM

O=c1[nH]c2sc(CN3CCCCC3)cc2c2c(O)cccc12 [Example 11, 9-Hydroxy-2-(piperidin-1-ylmethyl)thieno[2,3-c]isoquinolin-5(4H)-one]
IC50 [1]: 4.7 nM | efflux ratio at 2 h, 10 μM [2]: 10.4 | half-life at 1 μM [3, 7]: 10 min | half-life at 1 μM [3, 8]: 18 min | half-life at 1 μM [4, 9]: 27 min | half-life at 1 μM [4, 10]: > 30 min | half-life at 1 μM [5, 11]: 19 min | half-life at 1 μM [5, 12]: 17 min | Kp at 5 h, 10 μM [6]: 1.25 | B/P ratio divided by MDCK efflux ratio at 10 μM [6]: 0.12
